Measurements reported in patent US20240381872A1, “SUBSTITUTED 2,3-DIHYDRO[1,3]THIAZOLO[4,5-B]PYRIDINES, SALTS THEREOF AND THEIR USE AS HERBICIDALLY ACTIVE SUBSTANCES” (BAYER AKTIENGESELLSCHAFT, priority 2021, published 2024).

Columns and labels:
Type in all cases: in vivo
[1] = tested on: Kochia scoparia (KCHSC); assay: Herbicidal pre-emergence action, section C (Table C13); settings: application rate 320 g/ha, visual grading after ca. 3 weeks; for pest or weed control at 320 g/ha: Bassia scoparia, pre-emergence, 504 h, read-out: pre-emergence activity against KCHSC in %
Text: (§1) Seeds of mono- and dicotyledonous weed plants and crop plants were sown, in plastic or organic planting pots, in sandy loam and covered with soil. The compounds according to the invention, formulated in the form of wettable powders (WP) or as emulsifiable concentrates (EC), were applied to the surface of the covering soil as aqueous suspension or emulsion, with the addition of 0.5% of an additive, at an application rate of 600 l of water/ha (converted). Following treatment, the pots were placed in a greenhouse and kept under optimum growth conditions for the test plants. The visual grading of the damage to the test plants was carried out after ca. 3 weeks in comparison to untreated controls (herbicidal effect in percent (%): 100% effect=plants have died off, 0% effect=as control plants).

[2] = tested on: Lolium rigidum (LOLRI); assay: Herbicidal post-emergence action, section E (Table E6); settings: application rate 320 g/ha, visual assessment ca. 3 weeks after spraying; for pest or weed control at 320 g/ha: Lolium rigidum, 504 h, read-out: post-emergence activity against LOLRI in %
Text: (§2) Seeds of mono- and dicotyledonous weed plants and crop plants were sown, in plastic or organic planting pots, in sandy loam, covered with soil and grown in a greenhouse under controlled growth conditions. 2 to 3 weeks after sowing, the test plants were sprayed in the single-leaf stage. The compounds according to the invention, formulated in form of wettable powders (WP) or as emulsifiable concentrates (EC), were sprayed onto the green plant parts as aqueous suspension or emulsion, with the addition of 0.5% of an additive, at an application rate of 600 l of water/ha (converted). The test plants were placed in the greenhouse for ca. 3 weeks under optimum growth conditions, and then the effect of the preparations was assessed visually in comparison with untreated controls (herbicidal effect in percent (%): 100% effect=plants have died off, 0% effect=as control plants).

[3] = tested on: Oryza sativa (ORYZA); assay: Pre-emergence effects on crop plants, section D (Table D3); settings: visual grading after ca. 3 weeks
Text: (§3) Seeds of mono- and dicotyledonous weed plants and crop plants were sown, in plastic or organic planting pots, in sandy loam and covered with soil. The compounds according to the invention, formulated in the form of wettable powders (WP) or as emulsifiable concentrates (EC), were applied to the surface of the covering soil as aqueous suspension or emulsion, with the addition of 0.5% of an additive, at an application rate of 600 l of water/ha (converted).
(§4) Following treatment, the pots were placed in a greenhouse and kept under optimum growth conditions for the test plants. The visual grading of the damage to the test plants was carried out after ca. 3 weeks in comparison to untreated controls (herbicidal effect in percent (%): 100% effect=plants have died off, 0% effect=as control plants).
(§5) Tables D1 to D5 below show the effects of various compounds of the general formula (I) according to Table 1 on various crop plants and an application rate corresponding to 320 g/ha or below obtained by the experimental procedure mentioned above in Biological Examples, Section C.

[4] = tested on: Avena fatua (AVEFA); assay: Herbicidal pre-emergence action, section C (Table C4); settings: 504 h, application rate 320 g/ha, visual grading ca. 3 weeks after treatment vs untreated controls, 100% = plants have died off, 0% = as control plants, read-out: pre-emergence activity against AVEFA
Text: as §1

[5] = tested on: Brassica napus (BRSNW); assay: Pre-emergence effects on crop plants, section D (Table D5); settings: visual grading after ca. 3 weeks
Text: as §3, §4, §5

[6] = tested on: Digitaria sanguinalis (DIGSA); assay: Herbicidal post-emergence action, section E (Table E4); settings: application rate 80 g/ha; assessed visually ca. 3 weeks after treatment vs untreated controls; 100% = plants have died off, 0% = as control plants
Text: as §2

[7] = tested on: Viola tricolor (VIOTR); assay: Herbicidal post-emergence action, section E (Table E10); settings: application rate 320 g/ha, visual assessment ca. 3 weeks after spraying
Text: as §2

Molecule `CCOCCS(=O)(=O)N1C[S+]([O-])c2cc(C)c(-c3ccccc3F)nc21` (stereo not drawn) [Example I-127] has a pest or weed control at 320 g/ha [1] of 90% and a pest or weed control at 320 g/ha [2] of 80%.

With `COCC1(C(=O)N2CSc3cc(C)c(-c4ccccc4F)nc32)CC(Cl)=NO1` (stereo not drawn) [Example I-128] the “pre-emergence activity against KCHSC in %” value [1] was 90% and the “post-emergence activity against LOLRI in %” value [2] was 80%.

With `Clc1ccccc1-c1nc2c(cc1Br)SCN2` [Example I-041, 6-bromo-5-(2-chlorophenyl)-2,3-dihydro[1,3]thiazolo[4,5-b]pyridine] the “pre-emergence activity against ORYZA in % (crop plant damage)” value ([3]; application rate 320 g/ha) was 20%.

In the case of `Fc1ccccc1-c1nc2c(cc1Br)SCN2` [Example I-001, 6-bromo-5-(2-fluorophenyl)-2,3-dihydro[1,3]thiazolo[4,5-b]pyridine], the pest or weed control at 320 g/ha [4] is reported as 80%, the “pre-emergence activity against ORYZA in % (crop plant damage)” value ([3]; application rate 80 g/ha) is reported as 20% and the “pre-emergence activity against BRSNW in % (crop plant damage)” value ([5]; application rate 320 g/ha) is reported as 20%. For the same molecule, the pest or weed control at 320 g/ha [2] was 90%.

`Cc1cc2c(nc1-c1ccccc1F)NCS2` [Example I-007, 5-(2-fluorophenyl)-6-methyl-2,3-dihydro[1,3]thiazolo[4,5-b]pyridine] was tested, and the pest or weed control at 320 g/ha [4] was 80% and the “post-emergence activity against DIGSA” value [6] was 90%.

`CC(C)C(=O)N1C[S+]([O-])c2cc(Br)c(-c3ccccc3)nc21` (stereo not drawn) [Example I-067] was tested, and the “pre-emergence activity against ORYZA in % (crop plant damage)” value ([3]; application rate 80 g/ha) was 20%.

With `Cc1cc2c(nc1-c1ccccc1F)N(C(=O)C13CCCC1C(Cl)=NO3)CS2` (stereo not drawn) [Example I-104] the “pre-emergence activity against KCHSC in %” value [1] was 90% and the “post-emergence activity against VIOTR in %” value [7] was 80%.

With `CC1(C(=O)N2CSc3cc(Br)c(-c4ccccc4)nc32)CC(Cl)=NO1` (stereo not drawn) [Example I-139] the “pre-emergence activity against KCHSC in %” value [1] was 90%.

With `CC(=O)N1CSc2cc(Br)c(-c3ccccc3Cl)nc21` [Example I-055, 1-[6-bromo-5-(2-chlorophenyl)[1,3]thiazolo[4,5-b]pyridin-3(2H)-yl]ethanone] the “pre-emergence activity against ORYZA in % (crop plant damage)” value ([3]; application rate 320 g/ha) was 20% and the “pre-emergence activity against BRSNW in % (crop plant damage)” value ([5]; application rate 80 g/ha) was 20%.

With `Cc1cc2c(nc1-c1ccccc1F)N(S(=O)(=O)Cc1ccc(F)cc1)CS2` [Example I-122] the “pre-emergence activity against KCHSC in %” value [1] was 90%.

With `Cc1cc2c(nc1-c1ccccc1)N(C(=O)C1(C)CC(Cl)=NO1)CS2` (stereo not drawn) [Example I-088] the “pre-emergence activity against KCHSC in %” value [1] was 90% and the “post-emergence activity against VIOTR in %” value [7] was 80%.

`Cc1cc2c(nc1-c1cccc(C)c1F)NCS2` [Example I-113] was tested, and the “pre-emergence activity against KCHSC in %” value [1] was 80%.

With `Cc1ccccc1-c1nc2c(cc1C)SCN2C(=O)C1(C)CC(Cl)=NO1` (stereo not drawn) [Example I-137] the “pre-emergence activity against KCHSC in %” value [1] was 100%.

`CCS(=O)(=O)N1CSc2cc(C)c(-c3ccccc3F)nc21` [Example I-060, 3-(ethylsulfonyl)-5-(2-fluorophenyl)-6-methyl-2,3-dihydro[1,3]thiazolo[4,5-b]pyridine] showed a pest or weed control at 320 g/ha [4] of 90%.

`CC1(C(=O)N2CSc3cc(Br)c(-c4ccccc4Cl)nc32)CC(Cl)=NO1` (stereo not drawn) [Example I-141, [6-bromo-5-(2-chlorophenyl)[1,3]thiazolo[4,5-b]pyridin-3(2H)-yl](3-chloro-5-methyl-4,5-dihydro-1,2-oxazol-5-yl)methanone] was tested, and the pest or weed control at 320 g/ha [1] was 90% and the “pre-emergence activity against BRSNW in % (crop plant damage)” value ([5]; application rate 80 g/ha) was 20%.

`COC(=O)CCC(=O)N1CSc2cc(Cl)c(-c3ccccc3F)nc21` [Example I-003] was tested, and the “pre-emergence activity against BRSNW in % (crop plant damage)” value ([5]; application rate 80 g/ha) was 20%.

`Cc1cc2c(nc1-c1ccccc1F)N(C(=O)C1(C)CC(Cl)=NO1)CS2` (stereo not drawn) [Example I-083] was tested, and the “pre-emergence activity against ORYZA in % (crop plant damage)” value ([3]; application rate 80 g/ha) was 20%.
